Data published in article PMC5218480 (PLoS ONE, 2017).

Tested on: MV-4-11 cells
Assay: Gene expression microarray analysis (Affymetrix PrimeView) and GSEA
Format: cell-based, human
Design: RFU PODN (11730768_x_at) / Fold change /veh PODN (11730768_x_at) / RFU LINC00158 (11744669_a_at) / Fold change /veh LINC00158 (11744669_a_at) / RFU DUSP10 (11751237_a_at) / Fold change /veh DUSP10 (11751237_a_at) / RFU ID3 (11757404_x_at) / Fold change /veh ID3 (11757404_x_at) / RFU PLEKHG5 (11737974_s_at) / Fold change /veh PLEKHG5 (11737974_s_at) / RFU LRRC4B (11730491_at) / Fold change /veh LRRC4B (11730491_at) / RFU GIMAP4 (11747438_a_at) / Fold change /veh GIMAP4 (11747438_a_at) / RFU KRT8 (11758183_x_at) / Fold change /veh KRT8 (11758183_x_at) / RFU CNN1 (11734310_a_at) / Fold change /veh CNN1 (11734310_a_at) / RFU VPS37D (11726825_at) / Fold change /veh VPS37D (11726825_at) / RFU C10orf10 (11716522_x_at) / Fold change /veh C10orf10 (11716522_x_at) / RFU KIR2DL2 /// KIR2DL4 /// KIR2DL5A /// KIR2DL5B /// KIR2DS1 /// KIR2DS2 /// KIR2DS3 /// KIR2DS4 /// KIR3DL3 /// KIR3DL3 /// KIR3DS1 (11738374_at) / Fold change /veh KIR2DL2 /// KIR2DL4 /// KIR2DL5A /// KIR2DL5B /// KIR2DS1 /// KIR2DS2 /// KIR2DS3 /// KIR2DS4 /// KIR3DL3 /// KIR3DL3 /// KIR3DS1 (11738374_at) / RFU C1QL1 (11718748_at) / Fold change /veh C1QL1 (11718748_at) / RFU TMPRSS4 (11747572_a_at) / Fold change /veh TMPRSS4 (11747572_a_at) / RFU HAMP (11756126_x_at) / Fold change /veh HAMP (11756126_x_at) / RFU RNFT2 (11725882_a_at) / Fold change /veh RNFT2 (11725882_a_at) / RFU NR4A2 (11747474_a_at) / Fold change /veh NR4A2 (11747474_a_at) / RFU ABCC12 (11746883_a_at) / Fold change /veh ABCC12 (11746883_a_at) / RFU TMEM136 (11760407_x_at) / Fold change /veh TMEM136 (11760407_x_at) / RFU CLDN22 /// WWC2 (11732394_at) / Fold change /veh CLDN22 /// WWC2 (11732394_at) / RFU HLA-DPB1 (11760878_x_at) / Fold change /veh HLA-DPB1 (11760878_x_at) / RFU SPINT1 (11716480_a_at) / Fold change /veh SPINT1 (11716480_a_at) / RFU GAP43 (11754022_s_at) / Fold change /veh GAP43 (11754022_s_at) / RFU A4GNT (11735810_at) / Fold change /veh A4GNT (11735810_at) / RFU PRB3 (11715151_x_at) / Fold change /veh PRB3 (11715151_x_at) / RFU TUBB4B (11761932_at) / Fold change /veh TUBB4B (11761932_at) / RFU CAPN14 (11732068_a_at) / Fold change /veh CAPN14 (11732068_a_at) / RFU TMCC2 (11721928_a_at) / Fold change /veh TMCC2 (11721928_a_at) / RFU IRGQ (11745062_a_at) / Fold change /veh IRGQ (11745062_a_at) / RFU FAM174B (11720279_a_at) / Fold change /veh FAM174B (11720279_a_at) / RFU TMPRSS4 (11748680_a_at) / Fold change /veh TMPRSS4 (11748680_a_at) / RFU FAM212B (11763350_a_at) / Fold change /veh FAM212B (11763350_a_at) / RFU PLEKHG5 (11743358_a_at) / Fold change /veh PLEKHG5 (11743358_a_at) / RFU ZSCAN30 (11745921_a_at) / Fold change /veh ZSCAN30 (11745921_a_at) / RFU CMKLR1 (11741424_a_at) / Fold change /veh CMKLR1 (11741424_a_at) / RFU LOC101060620 /// MAPK8IP1 (11723275_at) / Fold change /veh LOC101060620 /// MAPK8IP1 (11723275_at) / RFU SPTSSB (11747773_x_at) / Fold change /veh SPTSSB (11747773_x_at) / RFU PRSS12 (11739890_at) / Fold change /veh PRSS12 (11739890_at) / RFU BIN1 (11741810_x_at) / Fold change /veh BIN1 (11741810_x_at) / RFU WNT11 (11732464_a_at) / Fold change /veh WNT11 (11732464_a_at) / RFU C10orf10 (11716521_a_at) / Fold change /veh C10orf10 (11716521_a_at) / RFU C5orf56 (11738089_at) / Fold change /veh C5orf56 (11738089_at) / RFU CYB561 (11721691_x_at) / Fold change /veh CYB561 (11721691_x_at) / RFU ANKRD19P (11752326_a_at) / Fold change /veh ANKRD19P (11752326_a_at) / RFU OR2T12 /// OR2T33 /// OR2T8 (11738714_s_at) / Fold change /veh OR2T12 /// OR2T33 /// OR2T8 (11738714_s_at) / RFU VCAN (11748164_a_at) / Fold change /veh VCAN (11748164_a_at) / RFU JSRP1 (11732532_at) / Fold change /veh JSRP1 (11732532_at) / RFU KRTAP10-11 (11738290_x_at) / Fold change /veh KRTAP10-11 (11738290_x_at) / RFU MYO3A (11730013_a_at) / Fold change /veh MYO3A (11730013_a_at) / RFU EBF3 (11725865_a_at) / Fold change /veh EBF3 (11725865_a_at) / RFU CAMK2N1 (11719241_x_at) / Fold change /veh CAMK2N1 (11719241_x_at) / RFU C5orf56 (11738088_a_at) / Fold change /veh C5orf56 (11738088_a_at) / RFU OLFML3 (11715873_a_at) / Fold change /veh OLFML3 (11715873_a_at) / RFU LOC100653217 /// NTM (11731650_a_at) / Fold change /veh LOC100653217 /// NTM (11731650_a_at) / RFU MAPK11 (11762145_a_at) / Fold change /veh MAPK11 (11762145_a_at) / RFU FIZ1 (11724087_x_at) / Fold change /veh FIZ1 (11724087_x_at) / RFU OASL (11726364_x_at) / Fold change /veh OASL (11726364_x_at) / RFU SOX15 (11748057_x_at) / Fold change /veh SOX15 (11748057_x_at) / RFU CD79A (11719716_a_at) / Fold change /veh CD79A (11719716_a_at) / RFU HIST1H1D (11736915_at) / Fold change /veh HIST1H1D (11736915_at) / RFU CASKIN2 (11723855_a_at) / Fold change /veh CASKIN2 (11723855_a_at) / RFU LOC730098 (11760151_x_at) / Fold change /veh LOC730098 (11760151_x_at) / RFU OR4N2 (11742367_at) / Fold change /veh OR4N2 (11742367_at) / RFU PRRT2 (11749266_a_at) / Fold change /veh PRRT2 (11749266_a_at) / RFU SNX32 (11753110_a_at) / Fold change /veh SNX32 (11753110_a_at) / RFU CDHR5 (11726645_a_at) / Fold change /veh CDHR5 (11726645_a_at) / RFU RCAN1 (11760418_a_at) / Fold change /veh RCAN1 (11760418_a_at) / RFU FAM167A (11723789_a_at) / Fold change /veh FAM167A (11723789_a_at) / RFU FAM26E (11764081_at) / Fold change /veh FAM26E (11764081_at) / RFU ISYNA1 (11749810_s_at) / Fold change /veh ISYNA1 (11749810_s_at) / RFU ACY1 (11761880_at) / Fold change /veh ACY1 (11761880_at) / RFU 11764098_at / Fold change /veh 11764098_at / RFU SAMD14 (11745864_x_at) / Fold change /veh SAMD14 (11745864_x_at) / RFU NPB (11741838_a_at) / Fold change /veh NPB (11741838_a_at) / RFU TMPRSS6 (11731388_a_at) / Fold change /veh TMPRSS6 (11731388_a_at) / RFU KRTAP10-2 (11738614_at) / Fold change /veh KRTAP10-2 (11738614_at) / RFU ARHGAP8 /// PRR5-ARHGAP8 (11727945_x_at) / Fold change /veh ARHGAP8 /// PRR5-ARHGAP8 (11727945_x_at) / RFU KRTAP5-7 /// NADSYN1 (11734609_at) / Fold change /veh KRTAP5-7 /// NADSYN1 (11734609_at) / RFU RASL12 (11751679_a_at) / Fold change /veh RASL12 (11751679_a_at) / RFU CDKN2B (11736163_a_at) / Fold change /veh CDKN2B (11736163_a_at) / RFU PRF1 (11729649_at) / Fold change /veh PRF1 (11729649_at) / RFU, ZNF638 /// ZNF638-IT1 / Fold change vs veh, ZNF638 /// ZNF638-IT1 / RFU, PANK3 / Fold change vs veh, PANK3 / RFU, SH3YL1 / Fold change vs veh, SH3YL1 / RFU, ZEB2 / Fold change vs veh, ZEB2 / RFU, NRIP1 / Fold change vs veh, NRIP1 / RFU, PTTG1IP / Fold change vs veh, PTTG1IP / RFU, CAPN2 / Fold change vs veh, CAPN2 / RFU, MED14 / Fold change vs veh, MED14 / RFU, SNORA58 / Fold change vs veh, SNORA58 / RFU, C1orf63 / Fold change vs veh, C1orf63 / RFU, LRRFIP1 / Fold change vs veh, LRRFIP1 / RFU, NDUFAF7 / Fold change vs veh, NDUFAF7 / RFU, SLC12A2 / Fold change vs veh, SLC12A2 / RFU, IBTK / Fold change vs veh, IBTK / RFU, ESF1 / Fold change vs veh, ESF1 / Fold change vs veh, TMEM50B / RFU, TAOK1 / Fold change vs veh, TAOK1 / RFU, ACBD3 / Fold change vs veh, ACBD3 / RFU, TMA16 / Fold change vs veh, TMA16 / RFU, RWDD3 / Fold change vs veh, RWDD3 / RFU, BCAT1 / Fold change vs veh, BCAT1 / RFU, EDEM3 / Fold change vs veh, EDEM3 / RFU, TMEM33 / Fold change vs veh, TMEM33 / RFU, WDR75 / Fold change vs veh, WDR75 / RFU, AHCTF1 / Fold change vs veh, AHCTF1 / RFU, TFRC / Fold change vs veh, TFRC / RFU, ZDHHC17 / Fold change vs veh, ZDHHC17 / RFU, NOM1 / Fold change vs veh, NOM1 / RFU, ARL8B / Fold change vs veh, ARL8B / RFU, ZBTB11 / Fold change vs veh, ZBTB11 / RFU, TAMM41 / Fold change vs veh, TAMM41 / RFU, KIAA1704 /// LOC100996395 / Fold change vs veh, KIAA1704 /// LOC100996395 / RFU, ING1 / Fold change vs veh, ING1 / RFU, TRMT61B / Fold change vs veh, TRMT61B / RFU, FUBP3 / Fold change vs veh, FUBP3 / RFU, TP53 / Fold change vs veh, TP53 / RFU, TNKS2 / Fold change vs veh, TNKS2 / RFU, ZFP14 / Fold change vs veh, ZFP14 / RFU, ACTR2 / Fold change vs veh, ACTR2 / RFU, PPP3R1 / Fold change vs veh, PPP3R1 / RFU, PIK3R1 / Fold change vs veh, PIK3R1 / RFU, HNRNPA1 / Fold change vs veh, HNRNPA1 / RFU, RNF170 / Fold change vs veh, RNF170 / RFU, ZNF28 / Fold change vs veh, ZNF28 / RFU, RNGTT / Fold change vs veh, RNGTT / RFU, OGT / Fold change vs veh, OGT / RFU, BRD1 / Fold change vs veh, BRD1 / RFU, MARS / Fold change vs veh, MARS / RFU, ZNF655 / Fold change vs veh, ZNF655 / RFU, FAHD1 / Fold change vs veh, FAHD1 / RFU, BDP1 / Fold change vs veh, BDP1 / RFU, LRRCC1 / Fold change vs veh, LRRCC1 / RFU, ARID1A / Fold change vs veh, ARID1A / RFU, ZNF146 / Fold change vs veh, ZNF146 / RFU, ZNF330 / Fold change vs veh, ZNF330 / RFU, GPN3 / Fold change vs veh, GPN3 / RFU, C9orf123 / Fold change vs veh, C9orf123 / RFU, N4BP2L2 / Fold change vs veh, N4BP2L2 / RFU, ARFIP1 / Fold change vs veh, ARFIP1 / RFU, FAM179B / Fold change vs veh, FAM179B / RFU, BCL10 / Fold change vs veh, BCL10 / RFU, UHRF1BP1L / Fold change vs veh, UHRF1BP1L / RFU, BET1 / Fold change vs veh, BET1 / RFU, CNOT2 / Fold change vs veh, CNOT2 / RFU, ZNF268 / Fold change vs veh, ZNF268 / Fold change vs veh, ZNF507 / RFU, DGCR2 / Fold change vs veh, DGCR2 / RFU, WDSUB1 / Fold change vs veh, WDSUB1 / Fold change vs veh, HSP90B1 /// MIR3652 / RFU, ADSS / Fold change vs veh, ADSS / RFU, GK / Fold change vs veh, GK / RFU, ZNF148 / Fold change vs veh, ZNF148 / RFU, TAF9 / Fold change vs veh, TAF9 / RFU, SLC1A5 / Fold change vs veh, SLC1A5 / RFU, SLMO2 / Fold change vs veh, SLMO2 / RFU, ABCC4 / Fold change vs veh, ABCC4 / RFU, LOC101060439 /// RAP1B / Fold change vs veh, LOC101060439 /// RAP1B / RFU, RFX7 / Fold change vs veh, RFX7 / RFU, GTPBP10 / Fold change vs veh, GTPBP10 / RFU, CNEP1R1 / Fold change vs veh, CNEP1R1 / RFU, BIVM-ERCC5 /// ERCC5 / Fold change vs veh, BIVM-ERCC5 /// ERCC5 / RFU, ILF3 / Fold change vs veh, ILF3 / RFU 11762660_at / Fold change /veh 11762660_at / RFU VCAN (11757783_s_at) / Fold change /veh VCAN (11757783_s_at) / RFU DDX43 (11728927_at) / Fold change /veh DDX43 (11728927_at) / RFU KRT8 (11758188_x_at) / Fold change /veh KRT8 (11758188_x_at) / RFU NKD1 (11759106_at) / Fold change /veh NKD1 (11759106_at) / RFU SRD5A1 (11742802_a_at) / Fold change /veh SRD5A1 (11742802_a_at) / RFU TPSAB1 /// TPSB2 (11721975_s_at) / Fold change /veh TPSAB1 /// TPSB2 (11721975_s_at) / RFU GSTM3 (11746129_a_at) / Fold change /veh GSTM3 (11746129_a_at) / RFU IL23R (11737362_x_at) / Fold change /veh IL23R (11737362_x_at) / RFU TMEM51 (11727254_a_at) / Fold change /veh TMEM51 (11727254_a_at) / RFU PIWIL2 (11732686_x_at) / Fold change /veh PIWIL2 (11732686_x_at) / RFU ORM1 (11744905_x_at) / Fold change /veh ORM1 (11744905_x_at) / RFU CCDC152 (11743942_at) / Fold change /veh CCDC152 (11743942_at) / RFU ECM1 (11717891_a_at) / Fold change /veh ECM1 (11717891_a_at) / RFU IL23R (11748794_a_at) / Fold change /veh IL23R (11748794_a_at) / RFU TNFAIP8L3 (11732012_x_at) / Fold change /veh TNFAIP8L3 (11732012_x_at) / RFU MBOAT4 (11741988_at) / Fold change /veh MBOAT4 (11741988_at) / RFU 11764193_at / Fold change /veh 11764193_at / RFU TMEM53 (11763286_at) / Fold change /veh TMEM53 (11763286_at) / RFU MAGEB2 (11727129_at) / Fold change /veh MAGEB2 (11727129_at) / RFU TMEM200A (11744735_a_at) / Fold change /veh TMEM200A (11744735_a_at) / RFU CCDC152 (11751479_a_at) / Fold change /veh CCDC152 (11751479_a_at) / RFU FAM211A (11726209_a_at) / Fold change /veh FAM211A (11726209_a_at) / RFU RGS16 (11746705_a_at) / Fold change /veh RGS16 (11746705_a_at) / RFU VCAN (11755009_s_at) / Fold change /veh VCAN (11755009_s_at) / RFU RHOB (11743442_s_at) / Fold change /veh RHOB (11743442_s_at) / RFU RGS16 (11720943_a_at) / Fold change /veh RGS16 (11720943_a_at) / RFU RGS16 (11720944_at) / Fold change /veh RGS16 (11720944_at) / RFU, VPS4B / Fold change vs veh, VPS4B / RFU, CREB1 / Fold change vs veh, CREB1 / RFU, DNAJC13 / Fold change vs veh, DNAJC13 / RFU, GNAQ / Fold change vs veh, GNAQ / RFU, CDK5R1 / Fold change vs veh, CDK5R1 / RFU, ZRANB3 / Fold change vs veh, ZRANB3 / RFU, CUL4A / Fold change vs veh, CUL4A / RFU, CCNY / Fold change vs veh, CCNY / RFU, UFL1 / Fold change vs veh, UFL1 / RFU, COG3 / Fold change vs veh, COG3 / RFU, DIAPH2 / Fold change vs veh, DIAPH2 / RFU, SKA2 / Fold change vs veh, SKA2 / RFU, AFF3 / Fold change vs veh, AFF3 / RFU, LMF1 / Fold change vs veh, LMF1 / RFU, IPO11 / Fold change vs veh, IPO11 / RFU, DFFB / Fold change vs veh, DFFB / RFU, FOXP1 / Fold change vs veh, FOXP1 / RFU, CARD8 / Fold change vs veh, CARD8 / RFU, STRN3 / Fold change vs veh, STRN3 / RFU, ADK / Fold change vs veh, ADK / RFU, RASSF2 / Fold change vs veh, RASSF2 / RFU, WIPF1 / Fold change vs veh, WIPF1 / RFU, LARP1B / Fold change vs veh, LARP1B / RFU, RASA1 / Fold change vs veh, RASA1 / RFU, RB1 / Fold change vs veh, RB1 / RFU, PPFIA1 / Fold change vs veh, PPFIA1 / RFU, MAT2A / Fold change vs veh, MAT2A / RFU, CCT5 / Fold change vs veh, CCT5 / RFU, WDR92 / Fold change vs veh, WDR92 / RFU, CUX1 / Fold change vs veh, CUX1 / RFU, TTC7A / Fold change vs veh, TTC7A / RFU, TMEM135 / Fold change vs veh, TMEM135 / RFU, DEPTOR / Fold change vs veh, DEPTOR / RFU, CPM / Fold change vs veh, CPM / RFU, DNAJB6 / Fold change vs veh, DNAJB6 / RFU, CACNA2D3 / Fold change vs veh, CACNA2D3 / RFU, DTX4 / Fold change vs veh, DTX4 / RFU, TFCP2 / Fold change vs veh, TFCP2 / RFU, GMCL1 /// GMCL1P1 / Fold change vs veh, GMCL1 /// GMCL1P1 / RFU, AEBP2 / Fold change vs veh, AEBP2 / RFU, SNHG1 /// SNORD22 /// SNORD25 /// SNORD26 /// SNORD27 /// SNORD28 /// SNORD29 /// SNORD31 / Fold change vs veh, SNHG1 /// SNORD22 /// SNORD25 /// SNORD26 /// SNORD27 /// SNORD28 /// SNORD29 /// SNORD31 / Fold change (Aza/veh), C12orf56 (ProbeSet 11735607_a_at) / Fold change (ACY-1035/veh), C12orf56 (ProbeSet 11735607_a_at) / Fold change (Aza/veh), FGFR1OP (ProbeSet 11751329_s_at) / Fold change (ACY-1035/veh), FGFR1OP (ProbeSet 11751329_s_at) / Fold change (Aza/veh), VPS36 (ProbeSet 11739960_a_at) / Fold change (ACY-1035/veh), VPS36 (ProbeSet 11739960_a_at) / RFU SYPL1 (11715823_x_at) / Fold change /veh SYPL1 (11715823_x_at) / RFU IGFBP7 (11715501_s_at) / Fold change /veh IGFBP7 (11715501_s_at) / RFU REEP3 (11722064_at) / Fold change /veh REEP3 (11722064_at) / RFU IGLL1 (11728026_x_at) / Fold change /veh IGLL1 (11728026_x_at): dose or concentration left out as unconfirmed
Conditions: ProbeSet 11760938_a_at; LIST D

In the case of Nc1ncn([C@@H]2O[C@H](CO)[C@@H](O)[C@H]2O)c(=O)n1 [azacitidine], the “Fold change vs veh, MAT2A” value is reported as 0.66.
